Drawing on patent US20100081679A1, “DIAMINOPYRIMIDINES AS FUNGICIDES” (Bayer CropScience AG, priority 2007, published 2010), this text covers logP and chromatographic logP for 67 compounds.

Where two headings read alike, the source gives them in different places. Marks after values point to notes of the source that are not given here.

The data set in a line: logP determination via retention times, calibrated with unbranched alkan-2-ones. The data set is classed as physicochemical.
Where [1] appears, read: HPLC on reversed-phase C 18, method **: 43° C., 0.1% aqueous phosphoric acid and acetonitrile, linear gradient 10% to 95% acetonitrile.
[2] abbreviates: method *: HPLC reversed-phase C18, 40° C., 0.1% aqueous formic acid and acetonitrile, linear gradient 10% to 95% acetonitrile.
Where [3] appears, read: HPLC on reversed-phase C18, method *: 40° C., mobile phase 0.1% aqueous formic acid and acetonitrile, linear gradient 10% to 95% acetonitrile.
Where [4] appears, read: HPLC on reversed-phase C18 column (EEC Directive 79/831 Annex V.A8), method *: 40° C., 0.1% aqueous formic acid and acetonitrile, linear gradient 10% to 95% acetonitrile.
[5] abbreviates: method **: HPLC reversed-phase C 18, temperature 43° C., mobile phase 0.1% aqueous phosphoric acid and acetonitrile, linear gradient 10% to 95% acetonitrile.
[6] abbreviates: method *: HPLC reversed-phase C 18, temperature 40° C., mobile phase 0.1% aqueous formic acid and acetonitrile, linear gradient 10% to 95% acetonitrile.
Where [7] appears, read: HPLC on reversed-phase C18, method *: 40° C., 0.1% aqueous formic acid and acetonitrile, linear gradient 10% to 95% acetonitrile.
The mark [8] stands for this setting: HPLC on reversed-phase C 18, EEC Directive 79/831 Annex V.A8, method *: 40° C., 0.1% aqueous formic acid and acetonitrile, linear gradient 10% to 95% acetonitrile.
[9] abbreviates: method *: HPLC, reversed-phase C 18, 40° C., mobile phase 0.1% aqueous formic acid and acetonitrile, linear gradient from 10% to 95% acetonitrile.
The mark [10] stands for this setting: method **: HPLC, reversed-phase C 18, 43° C., mobile phase 0.1% aqueous phosphoric acid and acetonitrile, linear gradient from 10% to 95% acetonitrile.
The mark [11] stands for this setting: method **: HPLC reversed-phase C 18, 43° C., 0.1% aqueous phosphoric acid and acetonitrile, linear gradient 10% to 95% acetonitrile.
Setting [12] is: HPLC reversed-phase C 18, EEC Directive 79/831 Annex V.A8, method *: 40° C., 0.1% aqueous formic acid and acetonitrile, linear gradient 10% to 95% acetonitrile.
Setting [13] is: HPLC on reversed-phase C18, method **: 43° C., mobile phase 0.1% aqueous phosphoric acid and acetonitrile, linear gradient 10% to 95% acetonitrile.

Consider `CN(CC1CC1)c1nc(Nc2cccc(N3CCCC3=O)c2)ncc1Cl` [compound 964], for which the logP under setting [1] is recorded as 2.21**.

`Cc1ccc(S(=O)(=O)O)cc1.O=C1CCCN1c1ccc(Nc2ncc(Cl)c(NC3CC3)n2)cc1` [Example 89]: the logP under setting [2] was 1.44*.

Consider `CCOc1ccc(Nc2ncc(Br)c(NC3CC3)n2)cc1` [compound 308], for which, under setting [3], the logP was 1.87*.

On to `O=C1CCCN1c1cc(Nc2ncc(C(F)(F)F)c(NC3CC3)n2)ccc1F` [compound 265], for which the logP under setting [4] was 2.33*.

As for `CC(=O)Nc1ccc(Nc2ncc(C(F)(F)F)c(NC3CC3)n2)cc1Cl` [compound 648], the logP is 2.27** under setting [5] and 2.18*; under setting [6].

As to `CC(C)NC(=O)c1ccc(Nc2ncc(Cl)c(NC3CC3)n2)cc1` [Example 43, 4-{[5-Chloro-4-(cyclopropylamino)pyrimidin-2-yl]amino}-N-isopropylbenzamide], the chromatographic logP (pH 2.3, read-out: logP (pH2.3)) was 1.73; the chromatographic logP (reversed-phase C18 HPLC column, method **: HPLC reversed-phase C 18, 43° C., 0.1% aqueous phosphoric acid and acetonitrile, linear gradient 10% to 95% acetonitrile, read-out: logP) turned out to be 1.73.

As for `O=S(=O)(Cc1cccc(Nc2ncc(Cl)c(NC3CC3)n2)c1)N1CCOCC1` [compound 261], the logP under setting [4] was 1.62*.

With `CCOc1cccc(Nc2ncc(Cl)c(NCC3CC3)n2)c1` [compound 692], under setting [7], the logP was 2.21*.

In the case of `O=C(Nc1cccc(Nc2ncc(Cl)c(NC3CC3)n2)c1)C1CC1` [Example 84], under setting [2], the logP is 1.62*.

For the compound `COc1cc(Nc2ncc(Cl)c(NC3CC3)n2)ccc1NC(C)=O` [compound 280], under setting [3], the logP is 1.18*.

For the compound `O=S(=O)(c1cccc(Nc2ncc(Cl)c(NCC3CC3)n2)c1)N1CCCCC1` [compound 675], the logP under setting [7] is 2.16*.

Take `CCOC(=O)C1(Nc2nc(Nc3ccccc3)ncc2Cl)CC1` [compound 315]: under setting [3], the logP is given as 2.17*.

Take `CSc1cccc(Nc2ncc(C)c(NC3CC3)n2)c1` [compound 497]: the logP under setting [8] was 1.48*.

As to `CC(C)(C)Sc1ccc(Nc2ncc(Cl)c(NC3CC3)n2)cc1` [compound 152], under setting [7], the logP is recorded as 3.73*.

On to `O=C(c1cccc(Nc2ncc(Cl)c(NC3CC3)n2)c1)N1CCC1` [compound 1063], for which the logP under setting [9] was 1.43*.

`CC(=O)c1cccc(Nc2ncc(F)c(NC3CC3)n2)c1` [compound 591]: the logP under setting [6] is recorded as 1.45*.

For the compound `Oc1cccc(Nc2ncc(Cl)c(NCC3CC3)n2)c1` [compound 681], the logP under setting [7] is reported as 1.49*.

Consider `CN1C(=O)COc2cc(Nc3ncc(Cl)c(NC4CC4)n3)ccc21` [compound 179], for which the logP under setting [4] is on record as 1.47*.

For the compound `CN(C)S(=O)(=O)c1ccc(Nc2ncc(Cl)c(NC3CC3)n2)cc1.Cl` [Example 78], the logP under setting [2] is 2.26*.

For `CCOc1ccccc1Nc1ncc(Cl)c(NC2CC2)n1` [compound 876], under setting [7], the logP is 2.13*.

For the compound `N#CCC(=O)c1ccc(Nc2ncc(Br)c(NC3CC3)n2)cc1` [compound 759], the logP under setting [7] was 2.16*.

Take `FC(F)Sc1ccc(Nc2ncc(Br)c(NCC3CC3)n2)cc1` [compound 470]: under setting [8], the logP is recorded as 3.07*.

For `O=C1CCCN1c1cc(Nc2ncc(Br)c(NC3CC3)n2)ccc1F` [compound 771], the logP under setting [1] was 1.61**.

As for `COc1cc(Nc2ncc(C)c(NC3CC3)n2)cc(OC)c1OC` [compound 52], under setting [2], the logP is given as 1.47*.

Regarding `COCc1cc(Nc2ncc(Cl)c(NC3CC3)n2)ccc1OC` [compound 1050], the logP under setting [9] is reported as 1.55*.

Consider `Clc1cnc(Nc2ccc(C3CCCCC3)cc2)nc1NC1CC1` [compound 952], for which the logP under setting [7] is 3.29*.

On to `C=CCOc1cccc(Nc2ncc(C(F)(F)F)c(NC3CC3)n2)c1` [compound 1024], for which the logP under setting [10] is 3.54**.

Turning to `COC(=O)c1ccc(Nc2ncc(Cl)c(NC3CC3)n2)cc1.Cl` [compound 36], under setting [11], the logP is 2.25**.

As to `O=C1NC(=O)C(c2ccc(Nc3ncc(Br)c(NC4CC4)n3)cc2)N1` (stereo not shown) [compound 384], the logP under setting [2] is on record as 0.62*.

Consider `Clc1cnc(Nc2cccc(-c3ccco3)c2)nc1NC1CC1` [compound 714], for which, under setting [7], the logP is listed as 2.54*.

Turning to `COc1ccccc1Nc1ncc(Cl)c(NCC2CC2)n1` [compound 687], under setting [7], the logP is reported as 1.99*.

Regarding `CC(C)(C)OC(=O)Nc1ccc(Nc2ncc(Cl)c(NC3CC3)n2)cc1` [Example 100], the logP under setting [7] is 2.12*.

Take `O=S(=O)(c1cccc(Nc2ncc(Br)c(NC3CC3)n2)c1)N1CCCCC1` [compound 354]: under setting [3], the logP is 2.16*.

In the case of `O=S(=O)(c1cccc(Nc2ncc(C(F)(F)F)c(NC3CC3)n2)c1)N1CCCCC1` [compound 654], under setting [6], the logP is 2.77*.

With `CN(c1nc(Nc2cccc(N3CCOC3=O)c2)ncc1Cl)C1CC1` [compound 1055], the logP under setting [9] is listed as 2.13*.

Take `CC(O)c1cccc(Nc2ncc(C(F)(F)F)c(NCC3CC3)n2)c1` (stereo not shown) [compound 705]: under setting [7], the logP was 2.16*.

Take `CCN(CC)C(=O)c1cccc(Nc2ncc(Cl)c(NC3CC3)n2)c1` [compound 701]: the logP under setting [7] is 1.86*.

Take `CC(=O)c1cc(Nc2ncc(Br)c(NCC3CC3)n2)ccc1Cl` [compound 487]: the logP under setting [8] is 2.67*.

Turning to `CC(=O)c1cc(Nc2ncc(Cl)c(NC3CC3)n2)ccc1Cl` [compound 249], the logP under setting [4] was 2.43*.

`CNS(=O)(=O)c1ccc(Nc2ncc(Cl)c(NCC3CC3)n2)cc1` [compound 20]: the logP under setting [11] is reported as 1.87**.

On to `CC(C)(O)c1cccc(Nc2ncc(Cl)c(NC3CC3)n2)c1` [compound 784], for which the logP under setting [12] is 1.47*.

`CC(C)NS(=O)(=O)Cc1cccc(Nc2ncc(Cl)c(NC3CC3)n2)c1` [compound 325]: under setting [13], the logP is 1.78**.

For `CC(C)NC(=O)Nc1ccc(Nc2ncc(Cl)c(NC3CC3)n2)cc1` [compound 632], under setting [5], the logP is 1.32**.

For `CCOC(=O)Nc1cccc(Nc2ncc(Br)c(NCC3CC3)n2)c1` [compound 428], under setting [2], the logP is on record as 1.99*.

As to `Clc1cnc(Nc2cccc(N3CCCC3)c2)nc1NC1CC1` [compound 619], under setting [5], the logP is reported as 2.23**.

For the compound `O=C1CCCN1c1cc(Nc2ncc(Cl)c(NC3CC3)n2)c(Cl)cc1Cl` [compound 298], the logP under setting [3] was 2.59*.

With `O=C1OCCN1c1cccc(Nc2ncc(Cl)c(NCC3CC3)n2)c1` [compound 861], under setting [12], the logP is recorded as 1.63*.

Consider `Clc1cccc(Nc2ncc(Br)c(NC3CC3)n2)c1` [compound 359], for which, under setting [3], the logP is 2.77*.

Take `O=C1COCCN1c1cccc(Nc2ncc(Cl)c(NC3CC3)n2)c1` [compound 791]: the logP under setting [12] is listed as 1.2*.

On to `O=C1CCCN1c1ccc(Nc2ncc(C(F)(F)F)c(NC3CC3)n2)cc1` [compound 342], for which, under setting [13], the logP is listed as 2.12**.

For `O=S1(=O)Cc2ccc(Nc3ncc(Cl)c(NC4CC4)n3)cc2C1` [compound 245], the logP under setting [4] was 1.51*.

As for `Fc1ccc(Nc2ncc(Br)c(NC3CC3)n2)cc1` [compound 499], under setting [8], the logP is 1.96*.

Regarding `CN1CCN(c2cccc(Nc3ncc(Cl)c(NCC4CC4)n3)c2)C1=O` [compound 618], under setting [6], the logP is 1.58*.

`COCC(C)Nc1ccc(Nc2ncc(Cl)c(NC3CC3)n2)cc1` (stereo not shown) [Example 110]: under setting [7], the logP is on record as 2.03*.

Take `CN(C)C(=O)c1ccc(Nc2ncc(Cl)c(NC3CC3(C)C)n2)cc1` (stereo not shown) [compound 1030]: the logP was 1.86** under setting [10] and 1.86*; under setting [9].

As to `CC(C)c1ccc(Nc2ncc(Cl)c(NCC3CC3)n2)cc1` [Example 54], the logP under setting [11] is 2.62**.

Take `CCC(=O)Nc1cccc(Nc2ncc(Br)c(NCC3CC3)n2)c1` [compound 483]: under setting [8], the logP was 1.66*.

Consider `COc1cc(Nc2ncc(F)c(NC3CC3)n2)ccc1NC(C)=O` [compound 572], for which the logP under setting [6] is recorded as 1.17*.

Regarding `Clc1ncc(Br)c(NC2CC2)n1` [5-bromo-2-chloro-N-cyclopropylpyrimidine-4-amine], the chromatographic logP (pH 2.3, read-out: logP (pH2.3)) turned out to be 1.97.

For `CN(C)C(=O)c1cccc(Nc2ncc(Cl)c(NCC3CC3)n2)c1` [compound 519], under setting [8], the logP is recorded as 1.58*.

For the compound `OCc1cccc(Nc2ncc(Cl)c(NCC3CC3)n2)c1` [compound 560], the logP under setting [8] is listed as 1.47*.

In the case of `Fc1cc(F)cc(Nc2ncc(Br)c(NC3CC3)n2)c1` [compound 602], the logP under setting [6] is reported as 3.35*.

Take `FC(F)C(F)(F)Oc1ccccc1Nc1ncc(Cl)c(NC2CC2)n1` [compound 896]: under setting [7], the logP is reported as 3.14*.

With `O=C(NCC(F)(F)F)c1cccc(Nc2ncc(Cl)c(NC3CC3)n2)c1` [compound 630], the logP under setting [6] was 1.8*.

Regarding `O=S(=O)(Cc1ccc(Nc2ncc(Cl)c(NC3CC3)n2)cc1)N1CCCCC1` [compound 537], the logP under setting [8] is 2.17*.

For the compound `COc1ccccc1Nc1ncc(Cl)c(NC2CC2)n1` [compound 282], the logP under setting [3] is 1.85*.

Take `CCOC(=O)Nc1cccc(Nc2ncc(Cl)c(NCC3CC3)n2)c1` [compound 513]: the logP under setting [8] is listed as 1.9*.
